Data taken from patent publication US5594144A, “Tropolone derivatives and pharmaceutical composition thereof for preventing and treating ischemic diseases” (The Upjohn Company, priority 1990, dated 1997).
Where two headings read alike, the source gives them in different places.

Tests used:
[1] = system: Brain microsomal fractions; experiment: in vitro Anti-lipid peroxidation effect (TBAR production, Fe3+-ADP/NADPH); assay type: biochemical, rat (SD strain, male)
Protocol: 1. in vitro Anti-lipid peroxidation effect
Brain microsomal fractions were prepared from male rats of SD strain, and a portion (0.2 mg protein) was incubated at 37° C. for 15 minutes with a mixture of Fe^3+ (0.1 mM)--ADP (0.5 mM) in the presence or absence of the test compound, in final volume of 1 ml of 10 mM HEPES, 150 mM KCl, 0.2 mM NADPH, pH 7.4. After incubation, 1.5 ml of TCA-TBA-HCl reagent (16.7% trichloroacetic acid, 0.4% thiobarbituric acid, 0.278N hydrochloric acid) was added and the reaction mixture was heated in a boiling water for 15 minutes. After cooling in ice-bath, the reaction mixture was centrifuged, and the absorbance of the supernatant at 535 nm was measured. The amount of thiobarbituric acid reactive substance (TBAR) was obtained by calculation using an extinction coefficient of 1.56×10^5 […]. […] The results are shown in Table 1A for compounds of the formulas IA, IB, and IC, respectively. The compounds with highest inhibition rate have the greatest anti-lipid peroxidation effect.

[2] = system: pig right coronary artery; experiment: in vitro Ca-antagonism (high K+ induced 45Ca-influx); assay type: cell-based; conditions: Sus scrofa, K+ 75 mM
Protocol: 2. in vitro Ca-antagonism
A strip of pig right coronary artery was depolarized with high K^+ (75 mM) for 30 minutes to induce voltage dependent ^45 Ca-influx. The extracellular ^45 Ca was chelated by adding EGTA and removed by washing, then the strip was lysed at 100° C. ^45 Ca in this lysate was measured as intracellular ^45 Ca by a scintillation counter. The concentration of the test compound was 10^-7, 10^-6, 10^-5 M, and applied until depolarization by K^+ was completed. Ratio of inhibition at various concentrations of the test compounds for increasing the intracellular ^45 Ca by K^+ was determined. The compound with high inhibition ratio has strong Ca-antagonism.

[3] = system: porcine coronary artery; experiment: in vitro Coronary vasodilation effect (PGF2α-contracted strip); assay type: cell-based; conditions: Sus scrofa; 25% of papaverine-induced relaxation; read-out: Coronary Vasodilation (ED25 μM)
Protocol: 3. in vitro Coronary vasodilation effect
The right portion of a porcine coronary artery was isolated, and cut into 3 mm wide strip which was suspended in a organ bath filled with 20 ml of Krebs--Henseleit solution (37° C.). During the experiment the bath solution was aerated with 95% O2 +5% Co2. The change in tension was measured using an isometric transducer. After load tension was stabilized, the preparation was contracted with PGF2α (10^-6 -[…]). After the contract level had stabilized the test compound was cumulatively applied from 10^-8 to 10^-5 M. Papaverine (10^-4 M) was used to obtain maximal relaxation at the end of the experiment. The result was expressed as the percentage of papverine-induced relaxation, and the concentration of the test compound which gave 25% relaxation of papaverine-induced relaxation was defined as ED25. The compound with low ED25 value has great coronary vasodilation effect.

[4] = system: Mouse Cerebral Ischemia/Reperfusion; experiment: in vivo Behavior test (Mouse Cerebral Ischemia/Reperfusion Test); parameters: species or system mouse (ICR strain, male)
Protocol: Bilateral common carotid arteries of both sides of ICR strain male mice (about 8 weeks old) were occluded for 5 minutes while lightly anesthetized, then blood was reperfuged. The test compounds were intraperitoneally administered 10 minutes before occlusion and within 3 hours after reperfusion. Since a day after reperfusion, behavior disorder was evaluated by spontaneous motor activity of exploratory behavior, traction test and passive avoidance test. That is, spontaneous motor activity was evaluated as follows. Motor activity was measured by tilting cage method for 30 minutes since immediately after a mouse was placed in a measurement cage. If the motor activity was at least more than (average of spontaneous motion of the group received solvent) +2×SD, the compound was evaluated as "active." In traction test, both fore limbs of the mouse were placed on the horizontally stretched wire. If the mouse put its hind limb within 2 seconds, the compound was estimated as "active.". In passive avoidance test, a step-through type apparatus was used, and as acquisition trial of blood reperfusion, electrical shock (about 0.5 mA, 3 seconds) was given to the mice as soon as the whole body of mice entered the black room and on the next day test trial was carried out. The mouse which stayed in a light room for at least 300 seconds was estimated as an active example. In all tests, the test compound which provided at least 50% of active animals was determined as "active." The results are shown in Table 5.

[5] = system: cerebral blood flow; experiment: Normal cerebral flow stream test; assay type: in vivo; conditions: Rattus norvegicus, iv; urethane anesthetized; laser Doppler; read-out: active dose (increase in cerebral blood flow)
Protocol: 6. Normal cerebral flow stream test
Experiment was carried out using rats anesthetized with urethane. After a cannulas for blood pressure monitoring and that for drug administration were inserted into femoral artery and vein, respectively. Temporal bone was cut away on a brain stereotaxis apparatus and a probe for measurement of cerebral blood flow was placed on dura mater. The cerebral blood flow was measured using a laser Dopplar blood flow meter. Firstly, a solvent of the test compound was administered intravenously and then three doses of the compound were administered in order of dose every fifteen-minute intervals. When an average of increase in cerebral blood flow due to the test compound minus 2×SE was larger than that of change in cerebral blood flow due to the solvent, the dose was estimated as "active". The compound (1B) was active in the dose of not less than 3 mg/kg i.v.

[6] = system: KCN-induced respiratory arrest; experiment: in vivo Anti-anoxia effect (KCN lethal dose); parameters: species or system mouse (ICR strain, male); conditions: Mus musculus, po; * methansulfonate; KCN 3.0 mg/kg
Protocol: 7. in vivo Anti-anoxia effect
A group (5 mice) of ICR strain male mice (about 8-week-old) were used. One or two hours after the test compounds were orally administered, a lethal dose (3.0 mg/kg) of KCN was administered into tail vein. A period of time to respiratory arrest and a survival rate were measured. The test compound which provided at least 50% of active example was determined as "active".

[7] = system: ventricular arrhythmia; experiment: in vivo Ischemic heart/reperfusion test; conditions: Rattus norvegicus, iv
Protocol: 4. in vivo Ischemic heart/reperfusion test
Experiment was carried out using rats anesthetized with pentobarbital under artificial respiration. After the forth rib was excised, heart was exposed by thoracotomy, and the thread was placed under the left coronary artery at it origin. Then, the heart was returned and a thread was passed in a tube. Compounds were applied through tail vein. After 10 minutes, the thread in the tube was pulled to occlude coronary artery. Five minutes after occlusion, the thread was loosened again for reperfusion. Then, ventricular arrhythmia was recorded on electrocardiogram (lead II), by sticking needle electrodes into a right fore-limb and a left hind-limb. Duration time of ventricular tachycardia and occurrence of ventricular fibrillation caused after reperfusion were compared between a group receiving the test compounds and a similarly treated vehicle group. If either of two parameters of the group that received the test compound became less than half of that of the group that received the vehicle, the test compound was estimated as "active".

[8] = ip, route cell empty (method: intraperitoneally)
[9] = read-out: Minimal Effective Dose (mg/kg, i.v.)

`CC(C)c1ccc(CN2CCN(C(c3ccccc3)c3ccc(Cl)cc3)CC2)c(=O)c(O)c1` (centres unmarked) [Compound 1A, 7-[4-(4-chlorobenzhydryl)piperazino-1-methyl]-2-hydroxy4-isopropyl-2,4,6-cycloheptatrien-1-one] was tested, and the “Anti-Lipid Peroxidation (% inhibition) 10 μM” value [1] was 6.7%, the “Anti-Lipid Peroxidation (% inhibition) 50 μM” value [1] was < 21.3% and the inhibition at 10 µM [2] was 44%. For the same compound, the EC25 [3] was > 10 µM and the minimal effective dose [4, 8] was > 10 mg/kg.

In the case of `COc1cc(C(C)C)ccc(C2Sc3ccccc3N2CCc2ccccc2)c1=O` (centres unmarked) [Compound 1B, 2-(2'-oxo-3'-methoxy-5'-isopropyl-3',5',7'-cycloheptatrienyl)-3-phenethylbenzothiazoline], the “Anti-Lipid Peroxidation (% inhibition) 10 μM” value [1] is reported as 91.8%, the “Anti-Lipid Peroxidation (% inhibition) 50 μM” value [1] is reported as 93.1% and the minimal effective dose ([4]; ip) is reported as 0.1 mg/kg. The minimal effective dose [5] was ≥ 3 mg/kg.

`CC(C)c1ccc(CN2CCN(C(c3ccc(F)cc3)c3ccc(F)cc3)CC2)c(=O)c(NCCN(C)C)c1` [Compound 1C, 7-[4-(4,4'-difluorobenzhydryl)piperazino-1-methyl]-2-(N-2-dimethylaminoethylamino)-4-isopropyl-2,4,6-cycloheptatrien-1-one] was tested, and the “Anti-Lipid Peroxidation (% inhibition) 10 μM” value [1] was 59.4%, the “Anti-Lipid Peroxidation (% inhibition) 50 μM” value [1] was 95.3% and the inhibition at 10 µM [2] was 81%. It also gave a minimal effective dose [6] of 100 mg/kg.

In the case of `COc1cc(C(C)C)ccc(CN2CCN(C(c3ccccc3)c3ccc(Cl)cc3)CC2)c1=O` (centres unmarked) [Compound 2A, 7-[4-(4-chlorobenzhydryl)piperazino-1-methyl]-4-isopropyl-2-methoxy-2,4,6-cycloheptatrien-1-one], the “Anti-Lipid Peroxidation (% inhibition) 10 μM” value [1] is reported as 28.8%, the “Anti-Lipid Peroxidation (% inhibition) 50 μM” value [1] is reported as 84.7% and the inhibition at 10 µM [2] is reported as 61%. It also gave an EC25 [3] of 1.8 µM, a minimal effective dose ([7]; value marked # (methanesulfonate per footnote of Table 5)) of 0.3 mg/kg and a minimal effective dose ([4]; ip, # methanesulfonate, route cell empty (method: intraperitoneally)) of 3 mg/kg.

`COc1cc(C(C)C)ccc(C2Sc3ccccc3N2C)c1=O` (centres unmarked) [Compound 2B, 2-(2'-oxo-3'-methoxy-5'-isopropyl-3',5',7'-cycloheptatrienyl)-3-methylbenzothiazoline] was tested, and the “Anti-Lipid Peroxidation (% inhibition) 10 μM” value [1] was 95.5% and the minimal effective dose ([4]; ip) was 1 mg/kg.

For `COc1cc(C(C)C)ccc(C2Sc3ccccc3N2Cc2ccncc2)c1=O` (centres unmarked) [Compound 6B, 2-(2'-oxo-3'-methoxy-5'-isopropyl-3',5',7'-cycloheptatrienyl)-3-(4-picolyl)benzothiazoline], the “Anti-Lipid Peroxidation (% inhibition) 10 μM” value [1] was 93.1%, the “Anti-Lipid Peroxidation (% inhibition) 50 μM” value [1] was 96.6% and the minimal effective dose ([4]; iv) was < 1 mg/kg.

With `COc1cc(C(C)C)ccc(CN2CCN(C(c3ccc(F)cc3)c3ccc(F)cc3)CC2)c1=O` [Compound 7A, 7-[4-(4,4'-difluorobenzhydryl)piperazino-1-methyl]-4-isopropyl-2-methoxy-2,4,6-cycloheptatrien-1-one] the “Anti-Lipid Peroxidation (% inhibition) 10 μM” value [1] was 27.2%, the “Anti-Lipid Peroxidation (% inhibition) 50 μM” value [1] was 59.2% and the inhibition at 10 µM [2] was 100%. For the same compound, the EC25 [3] was 1.9 µM, the minimal effective dose [7, 9] was < 5 mg/kg and the minimal effective dose [4, 8] was < 10 mg/kg.

With `COc1cc(C(C)C)ccc(C2Sc3ccccc3N2CCCN(C)CCc2ccccc2)c1=O` (centres unmarked) [Compound 10B, 2-(2'-oxo-3'-methoxy-5'-isopropyl-3',5',7'-cycloheptatrienyl)-3-[3-(N-methyl-N-phenethylamino)propyl]benzothiazoline] the “Anti-Lipid Peroxidation (% inhibition) 10 μM” value [1] was 93.0%, the “Anti-Lipid Peroxidation (% inhibition) 50 μM” value [1] was 94.5% and the minimal effective dose [7, 9] was < 5 mg/kg.

`COc1cc(C(C)C)ccc(C2Sc3ccccc3N2CCN(C)C)c1=O` (centres unmarked) [Compound 11B, 2-(2'-oxo-3'-methoxy-5'-isopropyl-3',5',7'-cycloheptatrienyl)-3-[2-(N,N-dimethylamino)ethyl]benzothiazoline] was tested, and the “Anti-Lipid Peroxidation (% inhibition) 10 μM” value [1] was 89.3%, the minimal effective dose [7, 9] was < 5 mg/kg and the minimal effective dose ([4]; ip) was 1 mg/kg.

`COc1cc(C(C)C)ccc(C2Sc3ccccc3N2CCCN(C)C)c1=O` (centres unmarked) [Compound 12B, 2-(2'-oxo-3'-methoxy-5'-isopropyl-3',5',7'-cycloheptatrienyl)-3-[3-(N,N-dimethylamino)propyl]benzothiazoline] was tested, and the “Anti-Lipid Peroxidation (% inhibition) 10 μM” value [1] was 89.4% and the minimal effective dose ([4]; ip) was 1 mg/kg.
